The text below walks through data of ChEMBL document CHEMBL1125933, “Arocalciferols: synthesis and biological evaluation of aromatic side-chain analogues of 1 alpha,25-dihydroxyvitamin D3(1a)” (1991).

Assay [1] is filed under the species Homo sapiens. Nature of the assay: 25-hydroxyvitamin D3-1-hydroxylase activity (10e-6 M) was measured as %control.
Assay [2] is filed under the species Homo sapiens. Nature of the assay: Inhibitory effect (10e-6 M) on the 25-hydroxyvitamin D3-1-hydroxylase activity.
The subject of assay [3] is Vitamin D3 receptor (Gallus gallus). Kind of assay: Relative competitive index values for binding to 1,25(OH)2D3 receptor of chick intestine.
Assay [4] has as its target Vitamin D3 receptor (Homo sapiens) (UniProt P11473). Nature of the assay: Relative competitive index values for binding to 1,25(OH)2D3 receptor of human HL-60 cells.
Assay [5] has as its system Gallus gallus. Nature of the assay: Effect on bone calcium mobilization was measured in vivo, in the vitamin D deficient chick. The class given is functional, Bone element. The arrangement: reference not given here.
Assay [6] concerns the target T1, Vitamin D-binding protein (Homo sapiens) (UniProt P02774).
T1 sequence (whole entry): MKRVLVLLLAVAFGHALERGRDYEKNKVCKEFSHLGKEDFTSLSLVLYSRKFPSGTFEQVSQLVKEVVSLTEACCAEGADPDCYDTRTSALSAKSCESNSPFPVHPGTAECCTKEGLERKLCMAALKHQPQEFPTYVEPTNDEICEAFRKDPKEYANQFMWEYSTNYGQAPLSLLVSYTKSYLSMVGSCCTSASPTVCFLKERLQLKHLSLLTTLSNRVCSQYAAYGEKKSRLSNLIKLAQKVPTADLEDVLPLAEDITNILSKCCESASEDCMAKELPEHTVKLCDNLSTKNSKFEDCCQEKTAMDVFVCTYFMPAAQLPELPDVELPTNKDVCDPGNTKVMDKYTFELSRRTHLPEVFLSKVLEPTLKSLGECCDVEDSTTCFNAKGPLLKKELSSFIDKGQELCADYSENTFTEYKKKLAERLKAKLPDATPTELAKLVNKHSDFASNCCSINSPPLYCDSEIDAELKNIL
Kind of assay: Relative competitive index for binding to vitamin D binding protein.

Assay [7] deals with Gallus gallus. Kind of assay: Effect on intestinal calcium absorption was measured in vivo, in the vitamin D deficient chick. The class given is functional. The arrangement: reference not given here.
The target of assay [8] is Vitamin D3 receptor (Homo sapiens) (UniProt P11473). Nature of the assay: Relative competitive index values for binding to 1,25(OH)2D3 receptor of human HL-60 cells. The source holds these as a separate data set.
For assay [9], the species on record is Homo sapiens. Nature of the assay: 25-OH-D3-1-hydroxylase activity (10e-6 M) was measured as %control. Type of assay: functional.
Assay [10] is filed under the species Homo sapiens. Nature of the assay: Inhibitory effect (10e-6 M) on the 25-OH-D3-1-hydroxylase activity. Type of assay: functional.

For the compound `C=C1/C(=C\C=C2/CCC[C@]3(C)[C@@H]([C@H](C)CCCC(C)(C)O)CC[C@@H]23)C[C@@H](O)C[C@@H]1O`, the Control in the assay listed under Homo sapiens [1] was 12%. Further, the Activity in the assay filed under Homo sapiens [2] turned out to be 2.1 pmol/10 min.

Turning to `C=C1/C(=C\C=C2/CCC[C@]3(C)[C@@H]([C@H](C)Cc4cccc(C(C)(C)O)c4)CC[C@@H]23)C[C@@H](O)C[C@@H]1O`, the RCI was 62 in assay [3], 32 in assay [4] and 2 in assay [6]. The Control in the assay filed under Homo sapiens [1] came to 99%. Also, the Activity in the assay listed under Homo sapiens [2] is 17.2 pmol/10 min. The Ratio with Gallus gallus [5] turned out to be 7.7; in the assay with Gallus gallus [7], 30.7.

Take `C=C1/C(=C\C=C2/CCC[C@]3(C)[C@@H]([C@H](C)Cc4cccc(C)c4)CC[C@@H]23)C[C@@H](O)C[C@@H]1O`: the RCI is 1.4 in [3] and 3.5 in [4]. Besides, the Control in the assay filed under Homo sapiens [1] stood at 96%. Besides, the Activity in the assay listed under Homo sapiens [2] came out at 16.7 pmol/10 min. The Ratio with Gallus gallus [5] stood at 0.06; in the assay with Gallus gallus [7], 0.31.

As to `C=C1/C(=C\C=C2/CCC[C@]3(C)[C@@H]([C@H](C)Cc4ccc(O)cc4)CC[C@@H]23)C[C@@H](O)C[C@@H]1O`, the RCI in assay [3] was found to be 5; in assay [8] it was 12; in assay [6] it was 1980. The compound further displayed a Control in the assay listed under Homo sapiens [9] of 104%. Also, the Ratio was 0.08 in the assay with Gallus gallus [5] and 0.04 with Gallus gallus [7]. For the same compound, in the assay listed under Homo sapiens [10], the Activity worked out at 18.1 pmol/10 min.

With `C=C1/C(=C\C=C2/CCC[C@]3(C)[C@@H]([C@H](C)Cc4cccc(O)c4)CC[C@@H]23)C[C@@H](O)C[C@@H]1O`, the RCI stood at 28 in assay [3], 27 in assay [4] and 980 in assay [6]. The compound further yielded a Control in the assay filed under Homo sapiens [1] of 97%. This compound also had an Activity in the assay filed under Homo sapiens [2] of 16.9 pmol/10 min. The Ratio is 1 in the assay with Gallus gallus [5] and 0.28 in the assay with Gallus gallus [7].
